Laboratory results reported in a melting point compilation (Tetko et al.; mined from patent text by program, amines drawn as free bases though some values may be those of a salt).

`O=C(Cc1cccc(Br)c1)Nc1ccc(Sc2c(O)c3c(Cl)cc(Cl)cc3[nH]c2=O)cc1` showed a melting point of 292 to 296 °C.
Compound `COC(=O)C=Cc1ccc2c(c1)cc(C)n2S(=O)(=O)c1ccccc1` has a melting point of 126 to 128 °C.
Compound `CN(C)S(=O)(=O)N1CCNC1=O` has a melting point of 129 °C.
`COc1cc2ncc(O[C@H]3CC[C@H](C(=O)O)CC3)nc2cc1OC` showed a melting point of 90 to 93 °C.
In the case of `CCc1cccc(C)c1CNc1cc(C(=O)N(C)C)nc2c(CO)c(C)[nH]c12`, the melting point is reported as 280 °C.
Compound `COC(=O)c1ccc(Cc2c(C(=O)OC)n(-c3ccccc3)c3nc(C)ccc3c2=O)cn1` has a melting point of 177 to 178 °C.
For `COC(=O)c1ccc(CNC(=O)[C@@H]2Cc3ccccc3N2S(=O)(=O)c2ccc(I)cc2)cc1`, the melting point was 80 to 85 °C.
Compound `CCCCNc1nc2ccccc2c2c1ncn2C` has a melting point of 98 to 100 °C.
Work on `OCc1ccc(-c2cn(Cc3ccccc3)c3ccccc23)cc1` yielded a melting point of 122 °C.
For `Nc1ncc(-c2cccs2)nc1C(=O)Nc1cccnc1`, the melting point was 178 to 189 °C.
Work on `COC(=O)C[C@@H](CC(=O)C=Cc1c(-c2ccc(F)cc2)c(-c2ccccc2)c(C(=O)NCc2ccc(F)cc2)n1C(C)C)O[Si](C)(C)C(C)(C)C` yielded a melting point of 62 to 63 °C.
In the case of `O=C(CCCCCn1ccnn1)NC[C@@H]1CN2C(=O)C[C@H]2O1` (racemic), the melting point is reported as 108 to 109 °C.
With `COC(=O)c1c(OC)nc2ccc(Cl)cc2c1-c1ccccc1Cl` the melting point was 151 to 152 °C.
`O=S(=O)(c1cc(SC(F)(F)F)[nH]c1-c1ccc(Cl)cc1)C(F)(F)F` gave a melting point of 118 to 122 °C.
With `CCOC(=O)c1ccc(NCC(C)Oc2ccc(F)cc2)cc1` (stereo unspecified) the melting point was 96 to 98 °C.
With `Cc1cccc(C)c1Nc1nc(N)ns1` the melting point was 180 °C.
`CCCCCCCCCCCCCCCCC=Cc1ccc(O)c(C(=O)O)c1` gave a melting point of 95 °C.
`Nc1cc(O)ccc1Oc1ccccc1` gave a melting point of 156 to 157 °C.
Work on `Cc1cc2nccc(-c3cccnc3)n2n1` yielded a melting point of 182 to 184 °C.
Work on `CCC(C#N)c1cccc(C(=O)c2cc3cc(C(=O)OC)sc3s2)c1` (stereo unspecified) yielded a melting point of 130 °C.
Work on `COc1ccc(C2=NN(c3cc(C)c4c(C)nn(C)c4n3)C(=O)[C@H]3CC=CC[C@@H]23)cc1Cl` (relative stereo) yielded a melting point of 217 to 219 °C.
`CC(C)(CO)NS(=O)(=O)c1cnc(NC(=O)c2cnn3c(C(F)F)cc(-c4ccc(C(F)(F)F)cc4)nc23)s1` showed a melting point of 280 °C.
`CCCCCCCCCCCCCCCCN(CCO)CCCCCCN(CCO)CCCCCCCCCCCCCCCC` gave a melting point of 29 to 30 °C.
For `C=C(C)C(=O)CC/C(C)=C/CC/C(C)=C/C(N)=O`, the melting point was 42 to 44 °C.
`C(=C\c1nc(COc2ccc(CCCn3cncn3)cc2)co1)/c1ccccc1` showed a melting point of 108 to 109 °C.
`COc1ccc2c3c1OC1C(=O)CC(C)C4C(C2)N(C#N)CCC314` (stereo unspecified) showed a melting point of 237 to 241 °C.
`CC(C)(C)OC(=O)N1CCN(c2ccc(N3C[C@H](CN)OC3=O)cc2F)CC1` gave a melting point of 184 °C.
Compound `OCc1cn2c(n1)CN=C(c1ccccn1)c1cc(I)ccc1-2` has a melting point of 206 to 207 °C.
For `COc1ccc(C(=O)Nc2ccccc2)cc1NCc1ccc(O)cc1`, the melting point was 188 to 190 °C.
For `O=C1C(=Cc2sccc2Oc2ccccc2)CCc2cc(OCCn3ccnc3)ccc21`, the melting point was 135 to 137 °C.
`Cc1cn2cccc(C=O)c2n1` gave a melting point of 123 to 125 °C.
In the case of `CC1(OCCN(Cc2ccccc2)C(=O)C(F)(F)F)C=CC=C([N+](=O)[O-])C1NC(=O)C(F)(F)F` (stereo unspecified), the melting point is reported as 90 to 92.5 °C.
With `CS(=O)(=O)Nc1ccc(OCC2CCN(c3cc([N+](=O)[O-])ccn3)CC2)cc1` the melting point was 184 °C.
With `Cc1cc(O)c(C)c(Br)c1C` the melting point was 86 to 88 °C.
For `COc1ccc2cccc(N3C(=O)CNCC3=O)c2c1`, the melting point was 232 °C.
In the case of `CC(=O)OCNC(=O)c1cc(C)c(C(c2cc(F)ccc2F)S(=O)(=O)c2ccc(F)cc2)cn1` (stereo unspecified), the melting point is reported as 111 to 113 °C.
In the case of `Cc1cc(C(=O)CBr)c(C)o1`, the melting point is reported as 56 to 58 °C.
`COc1cc(CBr)ccc1[N+](=O)[O-]` gave a melting point of 98 °C.
In the case of `Cc1cc(CSCCN)sc1CN1CCCCC1`, the melting point is reported as 81 °C.
`CC1(C)[C@H](c2nc(-c3ccc(F)cc3)no2)CC[C@]1(C)NCC(=O)N1C[C@@H](F)C[C@H]1C#N` showed a melting point of 160 to 163 °C.
With `Cc1c(O)c(=O)ccn1CC(=O)O` the melting point was over 230 °C.
`COc1ccc(CN2CCC(c3cn(Cc4ccoc4)c4ccccc34)CC2)cc1C(=O)O` gave a melting point of 253 to 255 °C.
With `CCN1C(=O)Cc2cc(C(C)=O)ccc21` the melting point was 141 to 145 °C.
`COC(=O)CCC(=O)c1ccc(O)c(Cl)c1` showed a melting point of 85 to 89 °C.
With `Cc1noc(=O)c2ccc(NC(=O)C(=O)CC3(c4cccc(C(F)(F)F)c4)CC3)cc12` the melting point was 136 to 139 °C.
`CC(=O)Nc1c(CC(=O)O)cccc1C(=O)c1ccccc1` showed a melting point of 188 to 190 °C.
Work on `CCCn1cc2c(C3C(=O)Nc4ccc(Br)cc43)nc(NC3CCNC3)nc2n1` (stereo unspecified) yielded a melting point of 315 to 320 °C.
In the case of `NS(=O)(=O)c1cccc(-c2cc(-c3nc(-c4ccc(C(F)(F)F)nc4)cc(C(F)(F)F)n3)ccn2)c1`, the melting point is reported as 258 °C.
In the case of `Cn1sc(=O)n(C)c1=O`, the melting point is reported as 64 to 65 °C.
`COC(=O)N1CCCCc2cc(C3=NNC(=O)SC3C)ccc21` (stereo unspecified) showed a melting point of 182 °C.
For `COc1ccc2c(c1)C=C(C=O)CO2`, the melting point was 49 to 50 °C.
`COc1ccc(C(=O)Nc2ccccc2)cc1CNS(=O)(=O)c1cc(Cl)cc(Cl)c1` gave a melting point of 203 to 206 °C.
In the case of `O=C(NCc1cc(C(F)(F)F)cc(C(F)(F)F)c1)c1c(-c2ccccc2)c2ccccc2[nH]c1=O`, the melting point is reported as 251 to 252 °C.
Work on `COc1ccc(CNc2nc(N3CCCC3CO)nc(OC)c2C(=O)NCc2ncccn2)cc1Cl` (stereo unspecified) yielded a melting point of 153 to 154 °C.
For `COC(N)C(=O)NC(=O)OCc1ccccc1` (stereo unspecified), the melting point was 110 to 112 °C.
With `CC(C)Oc1nc(-c2ccc(Cl)cc2)c(CCC(=O)O)o1` the melting point was 116 to 117 °C.
With `O=C(c1ccc(OCC2CO2)cc1)c1cccc2[nH]ccc12` (stereo unspecified) the melting point was 96 °C.
Compound `CN(CCCNC(=O)NCCCOc1cccc(CN2CCCCC2)c1)CCN(Cc1ccc(F)cc1)c1ccccn1` has a melting point of 123 to 125 °C.
With `COC(=O)c1csc2c(=O)cc(C(F)(F)F)oc12` the melting point was 148 to 158 °C.
Work on `Fc1ccc(-c2cc(Cn3cnc4c(Cl)nc5ccccc5c43)on2)cc1` yielded a melting point of 219 to 220 °C.
Work on `COc1ccc2c(c1)c(SC)c(C(N)=O)n2C` yielded a melting point of 204 to 206 °C.
Compound `CCOCc1nc2c(N)nc3ccccc3c2n1CCCCS(=O)(=O)NC` has a melting point of 170 to 172 °C.
`C=CC(O)c1ccc2[nH]c(CCCC)nc(=O)c2c1` (stereo unspecified) gave a melting point of 141 °C.
In the case of `CNC(=O)[C@@H](C[C@H](O)[C@H](CC1CCCCC1)NC(=O)[C@H](Cc1cscn1)NC(=O)[C@@H](CC(=O)N1CCOCC1)Cc1ccccc1)C(C)(C)O`, the melting point is reported as 150 to 152 °C.
`c1ccc2c(c1)CCc1ccccc1C2Nc1ccncc1` gave a melting point of 263 to 264 °C.
Work on `CS(=O)(=O)c1ccc(C=CCN2CCc3nc(N)sc3CC2)cc1` yielded a melting point of 157 to 161 °C.
`COc1ccc(S(=O)(=O)Nc2ccccc2O)cc1` showed a melting point of 89 °C.
`COC1CCC(C2=C(Cl)C(=O)c3ccccc3C2=O)CC1` (stereo unspecified) gave a melting point of 110 to 113 °C.
Compound `COC(=O)N(C)c1cn2cc(Sc3ccccc3)ccc2n1` has a melting point of 147 to 149 °C.
`CC(C)(C)NS(=O)(=O)c1ccc(Cl)cc1C=C1CCOC1=O` gave a melting point of 198 to 201 °C.
Compound `CC(C)C1(C)N=C(c2ncc(O)cc2C(=O)O)NC1=O` (stereo unspecified) has a melting point of 255 to 257 °C.
`COc1cccc2c1nc(C(F)F)n2-c1nc(N2CCOCC2)nc(N2CCC(NC(=O)CCl)CC2)n1` showed a melting point of 252 to 254 °C.
For `O=C(C=Cc1ccccc1)Oc1ccc(Br)cc1`, the melting point was 113 °C.
`COc1cc2c(sc3nc(C)c(CO)n32)c(OC)c1OC` showed a melting point of 196 °C.
Work on `CCCCc1nnc(C(=O)N(C)Cc2ccccc2)n1Cc1ccc(-c2ccccc2C#N)cc1` yielded a melting point of over 40 °C.
For `NC(=O)N1CCC(Br)C1=O` (stereo unspecified), the melting point was 128 to 129 °C.
For `CCCN(C(=O)C(F)(F)F)c1ccc(I)cc1`, the melting point was 177 to 179 °C.
For `CCC1=NNC(C)=C(C(=O)OCCOC)C1c1cccc([N+](=O)[O-])c1` (stereo unspecified), the melting point was 141 °C.
With `CCCS(=O)c1cc(O)ccc1C` (stereo unspecified) the melting point was 84 to 85 °C.
Work on `CCc1cc(-c2c3ccccc3cc3oc(C)c(C)c23)cc(CC)c1OS(=O)(=O)c1ccc(C(=O)O)c(O)c1` yielded a melting point of 222 to 227 °C.
In the case of `Cc1ccc(OCCOCCCCCCNCc2c(CO)ccc(O)c2CO)cc1C`, the melting point is reported as 65 to 68 °C.
Work on `CCOC(=O)Oc1ccc(S(=O)(=O)N2c3cc(Br)ccc3-n3cccc3[C@@H]2CC)cc1` yielded a melting point of 137 to 139 °C.
In the case of `CN(C)C(C)(CO)c1cccs1` (stereo unspecified), the melting point is reported as 68 to 70 °C.
`CCC(=O)NC1Cc2cccc3ccc(OC)c(c23)C1` (stereo unspecified) showed a melting point of 184 to 186 °C.
Compound `Cc1ccc2[nH]c(-c3ccc(S(N)(=O)=O)cc3)c(-c3ccccc3)c2c1` has a melting point of 242 to 244 °C.
`Nc1cc(-n2cc(C(=O)O)c(=O)c3cc(F)c(NC4COC4)c(Cl)c32)c(F)cc1F` gave a melting point of 240 to 244 °C.
In the case of `O=C(O)CCc1cnoc1-c1ccc(Cl)cc1Cl`, the melting point is reported as 106 to 107 °C.
For `CCCCCCN(Cc1ccc2ccccc2n1)C(Nc1ccc(OC)cc1OC)=C1C(=O)OC(C)(C)OC1=O`, the melting point was 106 to 109 °C.
`CN1CNC(=S)N(c2ccc(Cl)cc2)C1` showed a melting point of 178 to 179 °C.
With `CS(=O)(=O)c1ccc(C(=O)C2C(=O)CCCC2=O)c(Cl)c1OCc1cc(-c2ccccc2)no1` the melting point was 72 to 78 °C.
In the case of `CCCCNc1ccccc1S(=O)(=O)NC(=O)n1nc(SC)n(C)c1=O`, the melting point is reported as 120 °C.
Compound `Cc1ccc(C(=O)c2cc([N+](=O)[O-])ccc2Cl)cc1` has a melting point of 121 °C.
`CN(CCN1CCOCC1)Cc1ccc(COc2cccc3c2CN(C2CCC(=O)NC2=O)C3=O)cc1` (stereo unspecified) showed a melting point of 193 to 195 °C.
With `O=C(Cc1ccc2[nH]cc(CCN3C(=O)c4ccccc4C3=O)c2c1)N1CCOCC1` the melting point was 140 to 141 °C.
`CC(C#N)c1ccc(Cl)nn1` (stereo unspecified) showed a melting point of 65 °C.
Compound `CCNC(=NS(=O)(=O)c1ccc(O)cc1)N1N=CCC1c1ccccc1` (stereo unspecified) has a melting point of 158 to 160 °C.
Compound `CC(c1oc2ccccc2c(=O)c1-c1cccc(F)c1)n1ncc2c(Cl)ccnc21` (stereo unspecified) has a melting point of 173 to 176 °C.
`CCc1ncnc(NC2CCC3(CC2)OCC(c2ccccc2)O3)c1Cl` (stereo unspecified) showed a melting point of 105 to 106 °C.
`COC(=O)CN(CC(F)(F)F)c1ccc(C#N)c(C(F)(F)F)c1` showed a melting point of 144 to 145 °C.
Work on `CCON1CCC(NC(=O)Cc2c(C)cc(C)cc2C)(C(=O)OC)CC1` yielded a melting point of 131 to 132 °C.
Compound `CS(=O)(=O)Nc1ccc(S(=O)(=O)N2CCNc3nc4ccccc4n3CC2)cc1` has a melting point of 192 to 200 °C.
